Laboratory results from paper PMC12016531 (Applied and Environmental Microbiology, 2025).

What was measured:
[1] = system: L. monocytogenes ATCC19111; experiment: Intracellular accumulation of UDP-MurNAc-pentapeptide; assay type: cell-based, Listeria monocytogenes; settings: mycoidesin 1× and 2× MIC, vancomycin 10× MIC; 60 min; chloramphenicol 130 µg/mL pre-incubation 15 min; HPLC, MS
Description: (§1) Bacillus cereus CMCC63301 and L. monocytogenes ATCC19111 were grown to an OD600 of 0.3 and incubated with chloramphenicol (130 µg/mL) for 15 min. Mycoidesin (1× and 2× MIC) and vancomycin (10× MIC; positive control) were added and incubated for 60 min. The cells were collected, added to boiling water, treated for 15 min, centrifuged, and the supernatant was lyophilized. The intracellular accumulation of the peptidoglycan precursor UDP-MurNAc-pentapeptide was analyzed using HPLC (Hypersil ODS column) and identified via mass spectrometry ([27]).

[2] = system: Bacillus cereus CMCC63301; experiment: as above; assay type: cell-based; settings: mycoidesin 1× and 2× MIC, vancomycin 10× MIC; 60 min; chloramphenicol 130 µg/mL pre-incubation 15 min; HPLC, MS
Description: as §1

CN[C@H](CC(C)C)C(=O)N[C@H]1C(=O)N[C@@H](CC(N)=O)C(=O)N[C@H]2C(=O)N[C@H]3C(=O)N[C@H](C(=O)N[C@H](C(=O)O)c4cc(O)cc(O)c4-c4cc3ccc4O)[C@H](O)c3ccc(c(Cl)c3)Oc3cc2cc(c3O[C@@H]2O[C@H](CO)[C@@H](O)[C@H](O)[C@H]2O[C@H]2C[C@](C)(N)[C@H](O)[C@H](C)O2)Oc2ccc(cc2Cl)[C@H]1O [vancomycin, reference compound]
Intracellular accumulation of UDP-MurNAc-pentapeptide [1]: observed
Intracellular accumulation of UDP-MurNAc-pentapeptide [2]: observed
